Among the test systems are MOLT-4 leukemia; HOP-62 NSCLC; OVCAR-3 ovarian; MDA-MB-435; SNB-19 CNS; SF-295 CNS; MALME-3M melanoma; SF-539 CNS; NCI-H460 lung; SK-MEL-2 melanoma; PC-3 prostate.
Holding throughout (experiment): inhibition of tumour cell growth, NCI panel, 48 h

In PubChem BioAssay (NCI) one finds TGI data, which are given here for 15 molecules.

Structures are written as SMILES.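 Assay format: 96-well plates, 48-hour exposure. TGI denotes the concentration required for complete inhibition of growth.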 Bounds are passed on as bounds.

For the molecule `COc1cc(C(=O)N(Cc2cccnc2)C(=S)N(Cc2cccnc2)C(=O)c2cc(OC)c(OC)c(OC)c2)cc(OC)c1OC`, the TGI in the test on MOLT-4 leukemia, in the test with HOP-62 NSCLC, in the test with OVCAR-3 ovarian, in the test on MDA-MB-435, in the test with SNB-19 CNS and in the test on SF-295 CNS was greater than 100 µM in each case. The TGI in the test with MALME-3M melanoma, with SF-539 CNS and in the test with NCI-H460 lung was greater than 100 µM in each case.

Consider `CCOc1cn(C2CC(O)C(CO)O2)c(=O)[nH]c1=O` (stereo not drawn), for which the TGI in the test with MOLT-4 leukemia, with HOP-62 NSCLC, with OVCAR-3 ovarian, with MDA-MB-435, with SNB-19 CNS and with SK-MEL-2 melanoma was greater than 100 µM in each case. Also, the TGI in the test on MALME-3M melanoma, with NCI-H460 lung and with PC-3 prostate was greater than 100 µM in each case.

Take `N#CC(NC12CC3CC(CC(C3)C1)C2)c1ccccc1C(F)(F)F` (stereo not drawn): the TGI in the test with MOLT-4 leukemia, in the test with HOP-62 NSCLC, in the test with OVCAR-3 ovarian, in the test on SNB-19 CNS, in the test with SK-MEL-2 melanoma and in the test with MALME-3M melanoma was greater than 100 µM throughout. For the same molecule, the TGI in the test on SF-539 CNS and in the test on NCI-H460 lung was greater than 100 µM in each case.

Consider `CC1=NNC(N)=N/C1=C\C(Sc1ccc(Cl)cc1)c1ccc([N+](=O)[O-])cc1` (stereo not drawn), for which the TGI in the test with MOLT-4 leukemia, with HOP-62 NSCLC, in the test with MDA-MB-435, in the test on SNB-19 CNS, with SF-295 CNS and in the test with SK-MEL-2 melanoma was greater than 100 µM each time. Also, the TGI with MALME-3M melanoma, with NCI-H460 lung and with PC-3 prostate was greater than 100 µM throughout.

With `COCN(CCC1=CCCCC1)C(=O)OC`, the TGI with MOLT-4 leukemia, in the test on HOP-62 NSCLC, with OVCAR-3 ovarian, in the test on MDA-MB-435, in the test on SNB-19 CNS and with SF-295 CNS was greater than 100 µM in each case. Moreover, the TGI in the test with SK-MEL-2 melanoma, with MALME-3M melanoma, in the test with NCI-H460 lung and in the test with PC-3 prostate was greater than 100 µM each time.

Regarding `COC1C=CC(O)C(CO)O1` (stereo not drawn), the TGI with MOLT-4 leukemia, in the test on HOP-62 NSCLC, in the test with OVCAR-3 ovarian, in the test on SF-295 CNS, in the test with SK-MEL-2 melanoma and in the test on MALME-3M melanoma was greater than 100 µM in each case. Also, the TGI in the test on SF-539 CNS and in the test on NCI-H460 lung was greater than 100 µM throughout.

For `C=CCCN1CCc2c([nH]c3ccccc23)C1C(=O)O` (stereo not drawn), the TGI in the test with MOLT-4 leukemia, in the test on HOP-62 NSCLC, in the test on OVCAR-3 ovarian, in the test on SNB-19 CNS, in the test on SF-295 CNS and in the test on SK-MEL-2 melanoma was greater than 100 µM throughout. Moreover, the TGI in the test with MALME-3M melanoma, with SF-539 CNS and in the test on NCI-H460 lung was greater than 100 µM each time.

On to `O=C(NI1OC(=O)c2ccccc21)c1ccc(Cl)cc1`, for which the TGI in the test with HOP-62 NSCLC, in the test on OVCAR-3 ovarian, in the test with MDA-MB-435, with SF-295 CNS, in the test on SK-MEL-2 melanoma and in the test with SF-539 CNS was greater than 100 µM each time. For the same molecule, the TGI with NCI-H460 lung and with PC-3 prostate was greater than 100 µM in each case.

On to `O=C1/C(=C/c2ccc([N+](=O)[O-])cc2)C(=O)N(c2ccccc2)C1c1ccccc1` (stereo not drawn), for which the TGI in the test on MOLT-4 leukemia, in the test on HOP-62 NSCLC, in the test with OVCAR-3 ovarian, in the test on MDA-MB-435, in the test on SNB-19 CNS and in the test on SF-295 CNS was greater than 10 µM each time. Also, the TGI in the test on SK-MEL-2 melanoma, with SF-539 CNS, with NCI-H460 lung and in the test on PC-3 prostate was greater than 10 µM each time.

Regarding `O=C1/C(=N/O)Cc2c(Br)ccc(Br)c21`, the TGI with MOLT-4 leukemia is 82.4 µM; in the test with HOP-62 NSCLC, greater than 100 µM; in the test with OVCAR-3 ovarian, 70.3 µM; in the test on MDA-MB-435 it was greater than 100 µM; with SF-295 CNS it was greater than 100 µM; in the test on SK-MEL-2 melanoma it was 48.4 µM. Also, the TGI in the test on SF-539 CNS, in the test on NCI-H460 lung and with PC-3 prostate was greater than 100 µM each time.

For the molecule `CCOC(=O)/C=C(/C(=O)OCC)n1ccc(=O)n(Cc2cn(COCCOC(C)=O)nn2)c1=O`, the TGI in the test on MOLT-4 leukemia was 41.3 µM; in the test with HOP-62 NSCLC it was greater than 100 µM; in the test on OVCAR-3 ovarian it was 33.4 µM; in the test on MDA-MB-435, 36 µM; in the test on SNB-19 CNS it was greater than 100 µM; in the test on SF-295 CNS, greater than 100 µM. In addition, the TGI was 64.4 µM in the test with SK-MEL-2 melanoma, 34.5 µM in the test on SF-539 CNS, 29 µM in the test with NCI-H460 lung and greater than 100 µM in the test with PC-3 prostate.

As to `OCC(O)COCn1nncc1Cn1ncc2c(SCc3ccccc3)ncnc21` (stereo not drawn), the TGI with HOP-62 NSCLC, in the test on OVCAR-3 ovarian, in the test on MDA-MB-435, in the test with SNB-19 CNS, in the test on SF-295 CNS and with SK-MEL-2 melanoma was greater than 100 µM each time. The TGI in the test with SF-539 CNS and in the test with PC-3 prostate was greater than 100 µM throughout.

Take `Cc1cccc(N=NC(=O)NNc2cccc(C)c2C)c1C`: the TGI was 86.7 µM in the test with HOP-62 NSCLC; greater than 100 µM with OVCAR-3 ovarian; 64.9 µM with MDA-MB-435; greater than 100 µM with SNB-19 CNS; 46.7 µM in the test on SK-MEL-2 melanoma; 73.3 µM in the test with MALME-3M melanoma. For the same molecule, the TGI in the test with NCI-H460 lung and with PC-3 prostate was greater than 100 µM in each case.

Consider `CC12C(=O)CC(CC1=O)C2(C)C`, for which the TGI with MOLT-4 leukemia, in the test on HOP-62 NSCLC, in the test with OVCAR-3 ovarian, in the test with SNB-19 CNS, in the test on SF-295 CNS and with SK-MEL-2 melanoma was greater than 100 µM throughout. Also, the TGI with MALME-3M melanoma, in the test on NCI-H460 lung and in the test with PC-3 prostate was greater than 100 µM in each case.

With `CCOC(=O)CNc1c(OCc2ccccc2)c(=O)c1=O`, the TGI in the test with MOLT-4 leukemia, in the test on HOP-62 NSCLC, in the test on OVCAR-3 ovarian, in the test on MDA-MB-435, in the test with SNB-19 CNS and with SF-295 CNS was greater than 100 µM each time. Besides, the TGI in the test on SK-MEL-2 melanoma, with MALME-3M melanoma and with PC-3 prostate was greater than 100 µM each time.
